# Test results reported in patent US20130266665A1, “NANO[…] DISEASE THERAPY” (priority 2012, published 2013).
# How the values were obtained:
# Format in all cases: cell-based, human
# OVCAR5-CisR cells [1] = assay: AFM cell stiffness (Young's modulus, peak indentation depth) of cisplatin-resistant OVCAR5-CisR cells
# From the text: (§1) SKOV3 (American Type Culture Collection; Manassas, Va.) and OVCAR5 cells were maintained in Dulbecco's Modified Eagle's Medium supplemented with about 10% fetal bovine serum. SKOV3-CisR and OVCAR5-CisR cells were established by exposing the parental SKOV3 and OVCAR5 cell lines, respectively, to increasing concentrations of cisplatin over 12 months. OVCAR5-CisR cells are about 20- and SKOV3-CisR cells are about 8-fold more resistant to cisplatin compared to their syngeneic cisplatin sensitive counterparts. Cells were grown at about 37° C. in a humidified atmosphere containing about 5% CO2 and about 95% air.
# (§2) Cells were treated with about 1 or about 5 μg/mL cisplatin (Sigma-Aldrich, St. […]
# (§3) A protocol was established to exclude unhealthy or apoptotic cells from measurements by staining cells with AnnexinV (Sigma-Aldrich) as an indicator of apoptosis. Stained cells are dead or apoptotic, and typically float away and are no longer attached to a surface. Cells that stained positive for AnnexinV were excluded from AFM analysis. Measurements were conducted using a Catalyst AFM (Bruker Instruments, Santa Barbara, Calif.) with a combined inverted optical/confocal microscope (Zeiss Corp., Thornwood, N.Y.). This combination permits lateral positioning of an AFM tip over the cell center with submicron precision. AFM images and mechanical measurements were collected in contact mode using sharpened silicon nitride cantilevers with experimentally determined spring constants of about 0.02 N/m and a tip radius of less than about 20 nm. Mechanical measurements were obtained at about 37° C. with force measurements recorded at a pulling rate of about 1 Hz. Force-displacement curves were recorded for determination of Young's modulus values. Conversion of force-displacement curves to force-indentation curves allows the determination of the local cell surface elasticity or stiffness (Young's modulus, E). The measurement outcomes include averaged E values. Nanoscope files were converted to Igor. 6.0 (Wavemetrix) and used to generate two-dimensional (2D) stiffness matrix of the cell populations, allowing more precise determination of localized cell stiffness. AFM measurements were obtained in at least 60 cells in three different experiments. The AFM tip was precisely positioned (within micron range) on top of the nucleus using motorized stage and inverted optical view of the combined confocal-AFM microscope.
# (§4) Data were expressed as mean±standard error of mean (SEM). Statistical significance was identified by Student's t-test or one-way analysis of variance (Origin 8.0, OriginLab Corporation, Northmpton, Mass.) for the difference among treated pairs.
# OVCAR5-CisR cells [2] = assay: Resistance to cisplatin of OVCAR5-CisR cells versus parental OVCAR5; settings: OVCAR5-CisR vs OVCAR5
# From the text: as §1
# OVCAR5 cells = assay: AFM cell stiffness (Young's modulus, peak indentation depth) of cisplatin-sensitive OVCAR5 cells; settings: for Young's modulus E (mean±SEM), peak 2 / Young's modulus E (mean±SEM), peak 1: about 24 hours
# From the text: as §1, §2, §3, §4
# SKOV3-CisR cells = assay: Resistance to cisplatin of SKOV3-CisR cells versus parental SKOV3; settings: SKOV3-CisR vs SKOV3
# From the text: as §1
# [3] = about 5 μM cytochalasin D alone
SMILES,"difference in cell stiffness between untreated and cisplatin-treated cells (OVCAR5-CisR cells [1]; cisplatin 5 μg/mL, P=0.45)","localized peak indentation (OVCAR5-CisR cells [1]; cisplatin 5 μg/mL, untreated 0.5±0.06 μm)","Young's modulus E, peak 1 (OVCAR5-CisR cells [1]; cisplatin 5 μg/mL, untreated 1.0±0.03 kPa)","Young's modulus E, peak 2 (OVCAR5-CisR cells [1]; cisplatin 5 μg/mL, untreated 1.84±0.1 kPa)",fold more resistant to cisplatin compared to syngeneic cisplatin sensitive counterpart (OVCAR5-CisR cells [2]),"Young's modulus E (mean±SEM), peak 2 (OVCAR5 cells; about 1 μg/mL cisplatin)","Young's modulus E (mean±SEM), peak 1 (OVCAR5 cells; about 1 μg/mL cisplatin, untreated E=0.64±0.03 kPa)","Young's modulus E (mean±SEM), peak 1 (OVCAR5 cells; about 5 μg/mL cisplatin)","Young's modulus E (mean±SEM), peak 2 (OVCAR5 cells; about 5 μg/mL cisplatin)","peak indentation depth (OVCAR5 cells; cisplatin 1 μg/mL, untreated 1.2±0.04 μm)",peak indentation depth (OVCAR5 cells; cisplatin 5 μg/mL),fold more resistant to cisplatin compared to syngeneic cisplatin sensitive counterpart (SKOV3-CisR cells),Young's modulus E (OVCAR5-CisR cells [1]; [3]),Young's modulus E (OVCAR5 cells; [3])
"N.N.[Cl][Pt][Cl] [cisplatin, cis-diamminedichloridoplatinum(II)]",no significant difference,0.5±0.04 μm,0.97±0.01 kPa,1.88±0.05 kPa,20 fold,1.23±0.04 kPa,0.53±0.01 kPa,0.65±0.01 kPa,1.28±0.06 kPa,0.7±0.03 μm,0.5±0.03 μm,8 fold,,
C=C1[C@@H](C)[C@H]2[C@H](Cc3ccccc3)NC(=O)[C@]23[C@H](OC(C)=O)/C=C/[C@@](C)(O)C(=O)[C@@H](C)C/C=C/[C@H]3[C@@H]1O [cytochalasin D],,,,,,,,,,,,,0.45±0.01 kPa,0.34±0.02 kPa
